Tests used:
[1] = Drug concentration in choline-deficient high-fat diet induced Wistar-Han rat plasma at sc administration for 6 weeks from period of week 7 to 12 during high-fat diet treatment; format: ADME, organism-based; settings: in vivo, 1008 h
[2] = Half life in Sprague-Dawley rat at 30 mg/kg,sc administration; format: ADME, organism-based; settings: in vivo
[3] = AUC (0 to 24 hrs) in Wistar rat at 10 mg/kg,po administration; format: ADME, organism-based; settings: in vivo
Integrin alpha-4/beta-1 = Integrin alpha-4/beta-1 (Homo sapiens, UniProt P05556+P13612); assay: Inhibition of Integrin alpha4beta1 mediated cellular adhesion in human Jurkat cells incubated for 24 hrs in presence of Ca2+ and Mg2+ by real-time cell analysis; format: cell-based
Integrin alpha-8/beta-1 = Integrin alpha-8/beta-1 (Homo sapiens, UniProt P05556+P53708); assay: Inhibition of recombinant human Integrin alpha8beta1 mediated cellular adhesion expressed in HEK cells incubated for 24 hrs in presence of Ca2+ and Mg2+ by real-time cell analysis; format: cell-based
Integrin alpha-V/beta-8 = Integrin alpha-V/beta-8 (Homo sapiens, UniProt P06756+P26012); assay: Inhibition of Integrin alphaVbeta8 in human SNB-19 cells cocultured with TGF-beta expressing Mv1Lu cells assessed as inhibition of integrin alphaVbeta8 mediated TGF-beta transactivation by luciferase assay; format: cell-based
Integrin alpha-V/beta-1 [4] = target: T1, Integrin alpha-V/beta-1 (Homo sapiens, UniProt P05556+P06756); assay: Inhibition of recombinant human Integrin alphaVbeta1 using TMB as substrate incubated for 2 hrs in presence of fibronectin by ELISA; format: protein-complex assay
[5] = AUC (0 to 24 hrs) in Sprague-Dawley rat at 30 mg/kg,sc administration; format: ADME, organism-based; settings: in vivo
[6] = Oral bioavailability in Wistar rat at 10 mg/kg administration; format: ADME, organism-based; settings: in vivo
[7] = Cmax in Sprague-Dawley rat at 30 mg/kg,sc administration; format: ADME, organism-based; settings: in vivo
[8] = Cmax in Wistar rat at 10 mg/kg,po administration; format: ADME, organism-based; settings: in vivo
[9] = Apparent permeability across apical to basolateral side in dog MDCK-MDR1 cells incubated for 60 mins by HPLC analysis; format: ADME, cell-based, Canis lupus familiaris
[10] = Drug concentration in choline-deficient high-fat diet induced Wistar-Han rat liver at sc administration for 6 weeks from period of week 7 to 12 during high-fat diet treatment; format: ADME, organism-based; settings: in vivo, 1008 h
Integrin alpha-5/beta-1 = Integrin alpha-5/beta-1 (Homo sapiens, UniProt P05556+P08648); assay: Inhibition of Integrin alpha5beta1 mediated cellular adhesion in human HCT-116 cells incubated for 24 hrs in presence of Ca2+ and Mg2+ by real-time cell analysis; format: cell-based
[11] = Half life in Wistar-Han rat at 1 mg/kg,iv administration; format: ADME, organism-based; settings: in vivo
[12] = AUC (0 to infinity) in Wistar-Han rat at 1 mg/kg,iv administration; format: ADME, organism-based; settings: in vivo
Integrin alpha-V/beta-1 [13] = target: T1, Integrin alpha-V/beta-1; assay: Inhibition of recombinant human Integrin alphaVbeta1 mediated cellular adhesion expressed in CHO-B2 cell incubated for 24 hrs in presence of Ca2+ and Mg2+ by real-time cell analysis; format: cell-based
Integrin alpha-V/beta-3 = Integrin alpha-V/beta-3 (Homo sapiens, UniProt P05106+P06756); assay: Inhibition of recombinant human Integrin alphaVbeta3 mediated cellular adhesion expressed in HEK cells incubated for 24 hrs in presence of Ca2+ and Mg2+ by real-time cell analysis; format: cell-based
Rattus norvegicus = assay: Antifibrotic activity against choline-deficient high-fat diet induced Wistar-Han rat liver fibrosis model assessed as reduction in liver fibrosis at sc administration for 6 weeks from period of week 7 to 12 during high-fat diet treatment by picrosirius red staining based analysis; format: functional, organism-based
[14] = Tmax in Wistar rat at 10 mg/kg,po administration; format: ADME, organism-based; settings: in vivo
[15] = Clearance in Wistar-Han rat at 1 mg/kg,iv administration; format: ADME, organism-based; settings: in vivo
Integrin alpha-V/beta-1 [16] = target: T1, Integrin alpha-V/beta-1; assay: Inhibition of human Integrin alphaVbeta1 expressed in CHO-B2 cell cocultured with TGF-beta expressing Mv1Lu cells assessed as inhibition of integrin alphaVbeta1 mediated TGF-beta transactivation by luciferase assay; format: cell-based
[17] = AUC (0 to infinity) in Sprague-Dawley rat at 30 mg/kg,sc administration; format: ADME, organism-based; settings: in vivo
[18] = Tmax in Sprague-Dawley rat at 30 mg/kg,sc administration; format: ADME, organism-based; settings: in vivo
[19] = AUC (0 to infinity) in Wistar rat at 10 mg/kg,po administration; format: ADME, organism-based; settings: in vivo
[20] = AUC (0 to 24 hrs) in Wistar-Han rat at 1 mg/kg,iv administration; format: ADME, organism-based; settings: in vivo
Integrin alpha-V/beta-6 = Integrin alpha-V/beta-6 (Homo sapiens, UniProt P06756+P18564); assay: Inhibition of human Integrin alphaVbeta6 expressed in SW480 cells cocultured with TGF-beta expressing Mv1Lu cells assessed as inhibition of integrin alphaVbeta6 mediated TGF-beta transactivation by luciferase assay; format: cell-based
[21] = Volume of distribution at steady state in Wistar-Han rat at 1 mg/kg,iv administration; format: ADME, organism-based; settings: in vivo, read-out: Vdss
[22] = Half life in Wistar rat at 10 mg/kg,po administration; format: ADME, organism-based; settings: in vivo
[23] = Apparent permeability across basolateral to apical side in dog MDCK-MDR1 cells incubated for 60 mins by HPLC analysis; format: ADME, cell-based, Canis lupus familiaris
[24] = Bioavailability in Sprague-Dawley rat at 30 mg/kg,sc administration; format: ADME, organism-based; settings: in vivo

T1 sequence (P05556 21-798 limits assumed): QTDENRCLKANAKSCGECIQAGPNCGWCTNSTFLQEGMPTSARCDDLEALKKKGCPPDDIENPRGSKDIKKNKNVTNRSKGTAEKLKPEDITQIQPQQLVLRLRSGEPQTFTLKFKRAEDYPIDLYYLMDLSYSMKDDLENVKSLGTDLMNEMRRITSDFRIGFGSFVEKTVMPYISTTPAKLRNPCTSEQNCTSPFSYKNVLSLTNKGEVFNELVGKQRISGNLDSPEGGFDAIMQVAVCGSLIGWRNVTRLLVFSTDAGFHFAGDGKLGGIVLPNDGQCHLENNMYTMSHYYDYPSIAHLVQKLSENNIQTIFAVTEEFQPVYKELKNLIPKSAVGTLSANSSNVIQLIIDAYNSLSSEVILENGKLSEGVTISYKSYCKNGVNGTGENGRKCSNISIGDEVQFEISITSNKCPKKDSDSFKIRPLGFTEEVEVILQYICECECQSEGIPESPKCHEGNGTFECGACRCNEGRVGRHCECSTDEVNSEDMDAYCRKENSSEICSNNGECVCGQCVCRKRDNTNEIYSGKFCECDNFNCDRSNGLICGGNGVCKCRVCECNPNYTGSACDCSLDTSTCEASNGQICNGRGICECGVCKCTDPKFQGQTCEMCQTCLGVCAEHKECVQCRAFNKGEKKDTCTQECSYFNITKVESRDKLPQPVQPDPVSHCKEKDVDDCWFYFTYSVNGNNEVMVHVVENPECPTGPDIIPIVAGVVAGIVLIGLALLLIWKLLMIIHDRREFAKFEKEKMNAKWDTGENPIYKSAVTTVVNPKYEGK
T1 sequence (P06756 31-889 limits assumed): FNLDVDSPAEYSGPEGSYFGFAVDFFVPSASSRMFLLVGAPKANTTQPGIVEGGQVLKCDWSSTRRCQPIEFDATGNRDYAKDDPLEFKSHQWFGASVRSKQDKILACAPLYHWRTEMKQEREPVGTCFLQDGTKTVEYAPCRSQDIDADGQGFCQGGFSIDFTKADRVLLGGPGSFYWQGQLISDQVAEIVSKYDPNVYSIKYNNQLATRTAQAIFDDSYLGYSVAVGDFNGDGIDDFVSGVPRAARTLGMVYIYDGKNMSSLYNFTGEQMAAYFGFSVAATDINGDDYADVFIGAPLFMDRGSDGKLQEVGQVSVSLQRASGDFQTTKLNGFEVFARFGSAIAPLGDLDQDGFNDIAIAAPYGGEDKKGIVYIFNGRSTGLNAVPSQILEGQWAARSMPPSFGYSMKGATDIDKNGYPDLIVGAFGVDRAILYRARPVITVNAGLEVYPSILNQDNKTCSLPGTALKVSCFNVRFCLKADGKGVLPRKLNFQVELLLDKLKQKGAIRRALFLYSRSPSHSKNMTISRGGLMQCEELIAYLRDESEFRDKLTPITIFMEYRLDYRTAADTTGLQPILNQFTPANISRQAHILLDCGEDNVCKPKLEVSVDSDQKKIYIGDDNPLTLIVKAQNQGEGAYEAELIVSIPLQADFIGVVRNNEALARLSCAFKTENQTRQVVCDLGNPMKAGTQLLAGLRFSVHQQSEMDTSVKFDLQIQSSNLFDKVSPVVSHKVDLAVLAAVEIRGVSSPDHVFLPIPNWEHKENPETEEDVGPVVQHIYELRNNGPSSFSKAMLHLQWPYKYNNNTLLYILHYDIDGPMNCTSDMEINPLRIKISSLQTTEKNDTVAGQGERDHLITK
T1 sequence (P06756 891-1048 limits assumed): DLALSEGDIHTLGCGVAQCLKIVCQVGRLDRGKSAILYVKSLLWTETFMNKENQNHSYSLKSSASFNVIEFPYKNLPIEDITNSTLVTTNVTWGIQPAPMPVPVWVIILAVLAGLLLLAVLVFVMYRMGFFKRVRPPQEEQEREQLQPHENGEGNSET
Sequence of Integrin alpha-4/beta-1 (P05556 whole entry): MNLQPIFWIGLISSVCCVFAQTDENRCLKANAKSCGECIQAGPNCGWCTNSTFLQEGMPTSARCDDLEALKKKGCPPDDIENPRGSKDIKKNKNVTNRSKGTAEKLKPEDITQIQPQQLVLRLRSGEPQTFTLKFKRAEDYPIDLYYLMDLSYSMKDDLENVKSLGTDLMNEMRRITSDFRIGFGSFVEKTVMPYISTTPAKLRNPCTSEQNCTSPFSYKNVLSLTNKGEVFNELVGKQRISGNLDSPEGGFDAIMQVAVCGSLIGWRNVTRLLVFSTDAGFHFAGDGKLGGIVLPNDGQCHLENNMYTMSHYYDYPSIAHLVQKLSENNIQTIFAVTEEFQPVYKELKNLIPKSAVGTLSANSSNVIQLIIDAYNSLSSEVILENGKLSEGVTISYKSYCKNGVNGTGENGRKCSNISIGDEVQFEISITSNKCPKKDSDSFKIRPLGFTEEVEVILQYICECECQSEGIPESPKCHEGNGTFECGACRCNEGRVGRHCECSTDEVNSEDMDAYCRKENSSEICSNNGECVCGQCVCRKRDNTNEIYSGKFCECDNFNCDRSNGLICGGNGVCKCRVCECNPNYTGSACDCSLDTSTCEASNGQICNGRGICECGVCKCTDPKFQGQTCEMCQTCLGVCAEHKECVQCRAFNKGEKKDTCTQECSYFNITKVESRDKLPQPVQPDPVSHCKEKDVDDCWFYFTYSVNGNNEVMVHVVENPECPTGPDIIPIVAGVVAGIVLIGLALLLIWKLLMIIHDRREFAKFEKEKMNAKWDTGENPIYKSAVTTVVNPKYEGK
Sequence of Integrin alpha-4/beta-1 (P13612 whole entry): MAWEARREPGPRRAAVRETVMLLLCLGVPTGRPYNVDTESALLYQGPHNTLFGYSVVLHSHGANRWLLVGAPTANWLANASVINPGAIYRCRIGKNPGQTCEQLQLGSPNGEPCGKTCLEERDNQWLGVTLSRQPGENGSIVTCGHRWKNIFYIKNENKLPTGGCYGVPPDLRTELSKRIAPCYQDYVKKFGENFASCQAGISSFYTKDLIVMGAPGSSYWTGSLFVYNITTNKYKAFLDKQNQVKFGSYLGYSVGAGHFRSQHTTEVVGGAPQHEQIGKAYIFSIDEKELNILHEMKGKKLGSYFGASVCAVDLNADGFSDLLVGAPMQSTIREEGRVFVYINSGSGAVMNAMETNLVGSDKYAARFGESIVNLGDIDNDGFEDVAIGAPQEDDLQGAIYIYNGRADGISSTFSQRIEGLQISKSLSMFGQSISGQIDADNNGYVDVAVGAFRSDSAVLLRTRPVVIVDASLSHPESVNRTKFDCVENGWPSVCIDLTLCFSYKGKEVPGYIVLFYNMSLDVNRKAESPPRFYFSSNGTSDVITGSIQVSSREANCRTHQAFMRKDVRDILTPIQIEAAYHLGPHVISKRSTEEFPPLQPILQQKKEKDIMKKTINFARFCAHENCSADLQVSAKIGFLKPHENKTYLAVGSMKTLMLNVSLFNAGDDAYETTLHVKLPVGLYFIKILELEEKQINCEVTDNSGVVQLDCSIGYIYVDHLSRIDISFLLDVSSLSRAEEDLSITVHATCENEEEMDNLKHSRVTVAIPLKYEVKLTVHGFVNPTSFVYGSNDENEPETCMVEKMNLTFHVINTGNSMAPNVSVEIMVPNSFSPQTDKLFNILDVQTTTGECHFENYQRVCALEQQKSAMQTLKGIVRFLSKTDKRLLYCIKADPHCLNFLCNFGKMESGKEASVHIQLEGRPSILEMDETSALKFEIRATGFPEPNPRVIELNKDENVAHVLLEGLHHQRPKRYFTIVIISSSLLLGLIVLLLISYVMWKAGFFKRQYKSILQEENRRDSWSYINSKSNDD
Sequence of Integrin alpha-5/beta-1 (P05556 21-798 limits assumed): as the sequence (P05556 21-798 limits assumed) above
Sequence of Integrin alpha-5/beta-1 (P08648 42-894 limits assumed): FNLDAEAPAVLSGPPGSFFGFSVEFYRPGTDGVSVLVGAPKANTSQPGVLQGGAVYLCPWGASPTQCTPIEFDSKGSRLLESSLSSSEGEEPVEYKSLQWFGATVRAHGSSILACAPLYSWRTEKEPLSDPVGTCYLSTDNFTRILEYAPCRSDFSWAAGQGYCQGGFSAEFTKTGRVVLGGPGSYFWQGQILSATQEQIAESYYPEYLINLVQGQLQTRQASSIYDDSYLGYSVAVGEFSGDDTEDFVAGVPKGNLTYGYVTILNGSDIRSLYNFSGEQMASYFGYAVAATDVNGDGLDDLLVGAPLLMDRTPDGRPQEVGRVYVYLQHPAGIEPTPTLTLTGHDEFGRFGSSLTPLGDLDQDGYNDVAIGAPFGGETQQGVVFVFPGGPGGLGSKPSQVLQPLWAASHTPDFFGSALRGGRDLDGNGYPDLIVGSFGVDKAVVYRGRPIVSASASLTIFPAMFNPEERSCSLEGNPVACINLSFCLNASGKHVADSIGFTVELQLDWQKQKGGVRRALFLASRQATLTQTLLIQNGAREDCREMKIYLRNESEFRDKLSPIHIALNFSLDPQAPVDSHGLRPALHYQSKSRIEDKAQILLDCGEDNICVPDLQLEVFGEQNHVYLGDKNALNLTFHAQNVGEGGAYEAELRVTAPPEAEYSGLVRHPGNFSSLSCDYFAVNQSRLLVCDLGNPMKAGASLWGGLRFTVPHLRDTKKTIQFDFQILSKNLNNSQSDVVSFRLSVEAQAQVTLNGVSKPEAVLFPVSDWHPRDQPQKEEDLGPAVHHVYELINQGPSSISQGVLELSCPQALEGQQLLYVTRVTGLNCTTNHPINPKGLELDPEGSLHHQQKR
Sequence of Integrin alpha-5/beta-1 (P08648 895-1049 limits assumed): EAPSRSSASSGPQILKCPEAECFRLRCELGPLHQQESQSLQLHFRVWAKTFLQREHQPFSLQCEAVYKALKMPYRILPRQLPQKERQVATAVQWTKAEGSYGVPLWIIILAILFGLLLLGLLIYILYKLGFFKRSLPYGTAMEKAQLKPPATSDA

Cc1ccc(Cl)c(C(=O)N[C@@H](CNC(=O)Cn2c(=O)[nH]c3nc(C)c(F)cc32)C(=O)O)c1F
Drug uptake [1]: Dose-Dependent Effect | half-life [2]: 3.3 h | AUC(0-t) [3]: 4500 ng·h/mL | IC50 (Integrin alpha-4/beta-1): > 31.6 µM | IC50 (Integrin alpha-8/beta-1): > 31.6 µM | IC50 (Integrin alpha-V/beta-8): 9.55 µM | IC50 (Integrin alpha-V/beta-1 [4]): 0.000316 µM | AUC(0-t) [5]: 630000 ng·h/mL | bioavailability [6]: 1.3% | Cmax [7]: 66000 ng/mL | Cmax [8]: 390 ng/mL | Papp A→B at 1 h [9]: 3 ×10⁻⁶ cm/s | Drug uptake [10]: Dose-Dependent Effect | IC50 (Integrin alpha-5/beta-1): > 31.6 µM | half-life [11]: 3.32 h | AUC(0-inf) [12]: 44000 ng·h/mL | IC50 (Integrin alpha-V/beta-1 [13]): 0.427 µM | IC50 (Integrin alpha-V/beta-3): > 10 µM | Activity (Rattus norvegicus): Dose-Dependent Effect | Tmax [14]: 2.8 h | clearance [15]: 0.38 mL/min/kg | IC50 (Integrin alpha-V/beta-1 [16]): 0.0437 µM | AUC(0-inf) [17]: 630000 ng·h/mL | Tmax [18]: 4.7 h | AUC(0-inf) [19]: 4800 ng·h/mL | AUC(0-t) [20]: 44000 ng·h/mL | IC50 (Integrin alpha-V/beta-6): > 10 µM | Vd [21]: 0.087 L/kg | half-life [22]: 5.2 h | Papp B→A at 1 h [23]: 3.2 ×10⁻⁶ cm/s | bioavailability [24]: 59%

Source: ChEMBL document CHEMBL5500400, “Design and Discovery of a Potent and Selective Inhibitor of Integrin αvβ1” (J Med Chem, 2024)
